Data reported in patent US8729113B2 (Hoffmann-La Roche Inc., priority 2008, dated 2014).

Assays:
[1] = biological target: T1, TAAR1 (Mus musculus (Mouse), UniProt Q923Y8); test: Radioligand binding assay on TAAR1: Kd of the radioligand; details: binding assay at 4° C.; species of TAAR1 not stated; read-out: calculated Kd value of the radioligand
Experimental: Cells at confluence were rinsed with ice-cold phosphate buffered saline without Ca^2+ and Mg^2+ containing 10 mM EDTA and pelleted by centrifugation at 1000 rpm for 5 min at 4° C. The pellet was then washed twice with ice-cold phosphate buffered saline and cell pellet was frozen immediately by immersion in liquid nitrogen and stored until use at −80° C. Cell pellet was then suspended in 20 ml HEPES-NaOH (20 mM), pH 7.4 containing 10 mM EDTA, and homogenized with a Polytron (PT 3000, Kinematica) at 10,000 rpm for 10 s. The homogenate was centrifuged at 48,000×g for 30 min at 4° C. and the pellet resuspended in 20 ml HEPES-NaOH (20 mM), pH 7.4 containing 0.1 mM EDTA (buffer A), and homogenized with a Polytron at 10,000 rpm for 10 s. The homogenate was then centrifuged at 48,000×g for 30 min at 4° C. and the pellet resuspended in 20 ml buffer A, and homogenized with a Polytron at 10,000 rpm for 10 s. Protein concentration was determined by the method of Pierce (Rockford, Ill.). […]
Binding assay was performed at 4° C. in a final volume of 1 ml, and with an incubation time of 30 min. […] The tubes and filters were then washed 3 times with 1 ml aliquots of cold buffer B. Filters were not dried and soaked in Ultima gold (45 μl/well, Packard Instrument Company) and bound radioactivity was counted by a TopCount Microplate Scintillation Counter (Packard Instrument Company).

[2] = biological target: T1, TAAR1; test: Radioligand binding assay on TAAR1 (membranes of stably transfected HEK293 cells); details: competition with [3H]-rac-2-(1,2,3,4-tetrahydro-1-naphthyl)-2-imidazoline, 4° C., 30 min
Experimental: For the construction of expression plasmids the coding sequences of human, rat and mouse TAAR 1 were amplified from genomic DNA essentially as described by Lindemann et al.. The Expand High Fidelity PCR System (Roche Diagnostics) was used with 1.5 mM Mg^2+ and purified PCR products were cloned into pCR2.1—TOPO cloning vector (Invitrogen) following the instructions of the manufacturer. PCR products were subcloned into the pIRESneo2 vector (BD Clontech, Palo Alto, Calif.), and expression vectors were sequence verified before introduction in cell lines.
HEK293 cells (ATCC # CRL-1573) were cultured essentially as described Lindemann et al. (2005). For the generation of stably transfected cell lines HEK293 cells were transfected with the pIRESneo2 expression plasmids containing the TAAR coding sequences (described above) with Lipofectamine 2000 (Invitrogen) according to the instructions of the manufacturer, and 24 hrs post transfection the culture medium was supplemented with 1 mg/ml G418 (Sigma, Buchs, Switzerland). After a culture period of about 10 d clones were isolated, expanded and tested for responsiveness to trace amines (all compounds purchased from Sigma) with the cAMP Biotrak Enzyme immunoassay (EIA) System (Amersham) following the non-acetylation EIA procedure provided by the manufacturer. […] Membrane Preparation and Radioligand Binding
Cells at confluence were rinsed with ice-cold phosphate buffered saline without Ca^2+ and Mg^2+ containing 10 mM EDTA and pelleted by centrifugation at 1000 rpm for 5 min at 4° C. The pellet was then washed twice with ice-cold phosphate buffered saline and cell pellet was frozen immediately by immersion in liquid nitrogen and stored until use at −80° C. Cell pellet was then suspended in 20 ml HEPES-NaOH (20 mM), pH 7.4 containing 10 mM EDTA, and homogenized with a Polytron (PT 3000, Kinematica) at 10,000 rpm for 10 s. The homogenate was centrifuged at 48,000×g for 30 min at 4° C. and the pellet resuspended in 20 ml HEPES-NaOH (20 mM), pH 7.4 containing 0.1 mM EDTA (buffer A), and homogenized with a Polytron at 10,000 rpm for 10 s. The homogenate was then centrifuged at 48,000×g for 30 min at 4° C. and the pellet resuspended in 20 ml buffer A, and homogenized with a Polytron at 10,000 rpm for 10 s. Protein concentration was determined by the method of Pierce (Rockford, Ill.). The homogenate was then centrifuged at 48,000×g for 10 min at 4° C., resuspended in HEPES-NaOH (20 mM), pH 7.0 including MgCl2 (10 mM) and […] homogenized with a Polytron at 10,000 rpm for 10 s.
Binding assay was performed at 4° C. in a final volume of 1 ml, and with an incubation time of 30 min. The radioligand [^3H]-rac-2-(1,2,3,4-tetrahydro-1-naphthyl)-2-imidazoline was used at a concentration equal to the calculated Kd value of 60 nM to give a bound at around 0.1% of the total added radioligand concentration, and a specific binding which represented approximately 70-80% of the total binding. Non-specific binding was defined as the amount of [^3H]-rac-2-(1,2,3,4-tetrahydro-1-naphthyl)-2-imidazoline bound in the presence of the appropriate unlabelled ligand (10 μM). Competing ligands were tested in a wide range of concentrations […]. […] Each experiment was performed in duplicate. All incubations were terminated by rapid filtration through UniFilter-96 plates (Packard Instrument Company) and glass filter GF/C, pre-soaked for at least 2 h in polyethylenimine 0.3%, and using a Filtermate 96 Cell Harvester (Packard Instrument Company). The tubes and filters were then washed 3 times with 1 ml aliquots of cold buffer B. Filters were not dried and soaked in Ultima gold (45 μl/well, Packard Instrument Company) and bound radioactivity was counted by a TopCount Microplate Scintillation Counter (Packard Instrument Company).

T1 sequence (Q923Y8 whole entry): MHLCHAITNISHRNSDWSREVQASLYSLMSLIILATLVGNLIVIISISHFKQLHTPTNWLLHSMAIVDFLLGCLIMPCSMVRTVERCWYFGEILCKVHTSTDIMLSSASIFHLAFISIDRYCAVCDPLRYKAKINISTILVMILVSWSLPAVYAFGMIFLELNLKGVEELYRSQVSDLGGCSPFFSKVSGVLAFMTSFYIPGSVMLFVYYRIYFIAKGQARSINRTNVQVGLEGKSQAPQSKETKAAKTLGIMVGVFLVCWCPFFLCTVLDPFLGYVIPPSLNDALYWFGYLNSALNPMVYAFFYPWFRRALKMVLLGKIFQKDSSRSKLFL

In the case of c1ccc2c(c1)CCCC2C1=NCCN1 (racemic) [[^3H]-rac-2-(1,2,3,4-tetrahydro-1-naphthyl)-2-imidazoline], the Kd [1] is reported as 60 nM.

With N#Cc1cccc(OCC[C@H]2COC(N)=N2)c1 [Example 63, 3-[2-((S)-2-Amino-4,5-dihydro-oxazol-4-yl)-ethoxy]-benzonitrile] the Ki [2] was 0.001 µM.

With CC(C)(CC[C@H]1COC(N)=N1)c1ccc(Cl)cc1 [Example 26, (S)-4-[3-(4-Chloro-phenyl)-3-methyl-butyl]-4,5-dihydro-oxazol-2-ylamine] the Ki [2] was 0.0007 µM.

In the case of NC1=N[C@@H](CCOc2cccc(-c3ccccc3)c2)CO1 [Example 33, (S)-4-[2-(Biphenyl-3-yloxy)-ethyl]-4,5-dihydro-oxazol-2-ylamine], the Ki [2] is reported as 0.0018 µM.

CC[C@@H](C[C@H]1COC(N)=N1)Oc1cccc(O)c1 [Example 141, 3-[(S)-1-((8)-2-Amino-4,5-dihydro-oxazol-4-ylmethyl)-propoxy]-phenol] was tested, and the Ki [2] was 0.0037 µM.

C[C@@H](C[C@H]1COC(N)=N1)Oc1ccc(Cl)cc1 [Example 45, (S)-4-[(S)-2-(4-Chloro-phenoxy)-propyl]-4,5-dihydro-oxazol-2-ylamine] was tested, and the Ki [2] was 0.0028 µM.

Work on NC1=N[C@@H](CCOc2ccc(Cc3ccccc3)cc2)CO1 [Example 47, (S)-4-[2-(4-Benzyl-phenoxy)-ethyl]-4,5-dihydro-oxazol-2-ylamine] yielded a Ki [2] of 0.0048 µM.

NC1=N[C@@H](CCC2(c3ccc(Br)cc3)CC2)CO1 [Example 144, (S)-4-{2-[1-(4-Bromo-phenyl)-cyclopropyl]-ethyl}-4,5-dihydro-oxazol-2-ylamine] showed a Ki [2] of 0.0005 µM.

C[C@@H](C[C@H]1COC(N)=N1)Oc1ccc(Oc2ccccc2)cc1 [Example 79, (S)-4-[(S)-2-(4-Phenoxy-phenoxy)-propyl]-4,5-dihydro-oxazol-2-ylamine] gave a Ki [2] of 0.0086 µM.

CCC(CC[C@H]1COC(N)=N1)c1cccc(C(F)(F)F)c1 (stereo partly drawn) [Example 28, (4S)-4-[3-(3-Trifluoromethyl-phenyl)-pentyl]-4,5-dihydro-oxazol-2-ylamine] gave a Ki [2] of 0.0013 µM.

CC(CCc1ccccc1)[C@H]1COC(N)=N1 (stereo partly drawn) [Example 90, (4S)-4-(1-Methyl-3-phenyl-propyl)-4,5-dihydro-oxazol-2-ylamine] showed a Ki [2] of 0.008 µM.

With NC1=N[C@@H](CC2CC2c2ccccc2)CO1 (stereo partly drawn) [Example 23, (4S)-4-(2-Phenyl-cyclopropylmethyl)-4,5-dihydro-oxazol-2-ylamine] the Ki [2] was 0.0031 µM.

With NC1=N[C@@H](CCCCc2ccccc2)CO1 [Example 172, (S)-4-(4-Phenyl-butyl)-4,5-dihydro-oxazol-2-ylamine] the Ki [2] was 0.0015 µM.

CC[C@@H](C[C@H]1COC(N)=N1)Oc1cc(F)c(F)cc1F [Example 152, (S)-4-[(S)-2-(2,4,5-Trifluoro-phenoxy)-butyl]-4,5-dihydro-oxazol-2-ylamine] showed a Ki [2] of 0.0029 µM.

Work on NC1=N[C@@H](CCOc2cccc(OC(F)(F)F)c2)CO1 [Example 19, (S)-4-[2-(3-Trifluoromethoxy-phenoxy)-ethyl]-4,5-dihydro-oxazol-2-ylamine] yielded a Ki [2] of 0.0021 µM.

Work on CC(CC[C@H]1COC(N)=N1)c1ccc(F)cc1 (stereo partly drawn) [Example 17, (4S)-4-[3-(4-Fluoro-phenyl)-butyl]-4,5-dihydro-oxazol-2-ylamine] yielded a Ki [2] of 0.0012 µM.

Work on CC[C@@H](C[C@H]1COC(N)=N1)Oc1ccc(F)c(Cl)c1 [Example 120, (S)-4-[(S)-2-(3-Chloro-4-fluoro-phenoxy)-butyl]-4,5-dihydro-oxazol-2-ylamine] yielded a Ki [2] of 0.0014 µM.

NC1=N[C@@H](CCC2(c3ccc(F)c(F)c3)CC2)CO1 [Example 108, (S)-4-{2-[1-(3,4-Difluoro-phenyl)-cyclopropyl]-ethyl}-4,5-dihydro-oxazol-2-ylamine] showed a Ki [2] of 0.0014 µM.

C[C@@H](C[C@H]1COC(N)=N1)Oc1ccc(Br)cc1 [Example 71, (S)-4-[(S)-2-(4-Bromo-phenoxy)-propyl]-4,5-dihydro-oxazol-2-ylamine] showed a Ki [2] of 0.0024 µM.

With NC1=N[C@@H](CCOc2ccccc2)CO1 [Example 1, (S)-4-(2-Phenoxy-ethyl)-4,5-dihydro-oxazol-2-ylamine] the Ki [2] was 0.0017 µM.

Work on CC[C@@H](C[C@H]1COC(N)=N1)Oc1ccccc1 [Example 109, (S)-4-((S)-2-Phenoxy-butyl)-4,5-dihydro-oxazol-2-ylamine] yielded a Ki [2] of 0.0016 µM.

NC1=N[C@@H](CCOc2ccc(F)c(Cl)c2)CO1 [Example 8, (S)-4-[2-(3-Chloro-4-fluoro-phenoxy)-ethyl]-4,5-dihydro-oxazol-2-ylamine] gave a Ki [2] of 0.0002 µM.
